Measured values: the NIST ThermoML archive (doi:10.1021/acs.jced.5b00594)
Numbers after ± are expanded uncertainties.

Assay: wn = mass fraction of the nth substance listed
Conditions: 313.15 K, 100 kPa, Liquid, Pycnometric method

Structure (SMILES)	mass density (w1 = 0.4722) [kg/m3]	mass density (w2 = 0.6151) [kg/m3]
O=S(=O)([O-])O.[K+] [hydrogen potassium sulfate] + O	1391 ± 4	–
O=S(=O)([O-])O.[K+] [hydrogen potassium sulfate] + O=S(=O)(O)O	–	1832 ± 6
